The results in this text go back to patent publication US6673769B2, “Lanthionine bridged peptides” (priority 1991, dated 2004).

Like-named read-outs stand apart in the source and are kept apart here.

Data set [1] is described as follows: Enzymatic degradation of enkephalin analogs (half-life).
The target in a further data set is SSTR2 receptor. Briefly: Inhibition of radioligand binding to cloned somatostatin receptor SSTR2. Conditions: for IC50: cloned receptor, radioligand binding, read-out: SSTR2 receptor binding constant IC50.
In another data set the target is SSTR4 receptor. Briefly: Inhibition of radioligand binding to cloned somatostatin receptor SSTR4. The settings on record: for IC50: cloned receptor, radioligand binding, read-out: SSTR4 receptor binding constant IC50.
A further data set has as its target T1, MVD (δ-receptor) (Mus musculus, UniProt P32300).
T1 construct: The vas is then mounted under 0.5 g tension in a 5 ml organ bath; from tissue; host or cells: mouse vas deferens (Swiss Webster)
The data set is described as follows: cell-based.

For another data set, the target named is δ receptor (Homo sapiens, UniProt P41143). The data set is described as follows: δ-Binding, replacement of 3H-naltrindole.
δ receptor, sequence (P41143 whole entry): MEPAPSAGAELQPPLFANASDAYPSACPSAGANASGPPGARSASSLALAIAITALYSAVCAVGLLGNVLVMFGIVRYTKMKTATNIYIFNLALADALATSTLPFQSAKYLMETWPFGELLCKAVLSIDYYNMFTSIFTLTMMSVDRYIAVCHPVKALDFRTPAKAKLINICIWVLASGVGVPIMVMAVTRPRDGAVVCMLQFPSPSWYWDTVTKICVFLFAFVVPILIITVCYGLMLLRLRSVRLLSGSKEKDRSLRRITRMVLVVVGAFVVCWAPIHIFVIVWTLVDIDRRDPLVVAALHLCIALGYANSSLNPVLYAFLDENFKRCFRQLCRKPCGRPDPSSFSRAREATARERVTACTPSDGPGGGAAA
[2] abbreviates: inhibition of electrically evoked twitch of mouse vas deferens, read-out: MVD IC50.

T1 sequence (P32300 whole entry): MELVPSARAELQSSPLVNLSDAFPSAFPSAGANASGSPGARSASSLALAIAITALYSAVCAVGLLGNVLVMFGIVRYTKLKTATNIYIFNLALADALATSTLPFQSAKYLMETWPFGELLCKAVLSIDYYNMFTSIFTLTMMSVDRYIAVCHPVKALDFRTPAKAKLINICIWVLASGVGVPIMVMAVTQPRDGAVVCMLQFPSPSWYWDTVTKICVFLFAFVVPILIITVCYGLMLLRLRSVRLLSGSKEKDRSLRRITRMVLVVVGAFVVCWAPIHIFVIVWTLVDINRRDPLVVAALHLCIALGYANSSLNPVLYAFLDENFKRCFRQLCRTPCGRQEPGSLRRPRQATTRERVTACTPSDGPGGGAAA

What is called half-life is the time needed for the level to fall by half in the phase considered. Read a high half-life as slow loss. Consider `NC(=O)[C@@H]1CSSC[C@@H](NC(=O)[C@@H](N)Cc2ccc(O)cc2)C(=O)NCC(=O)N[C@@H](Cc2ccccc2)C(=O)N1` [Disulfide-enkephalin, reference compound], for which the half-life in data set [1] came to 332 min. Same read-out and setting: next, `NC(=O)[C@@H]1CSC[C@@H](NC(=O)[C@@H](N)Cc2ccc(O)cc2)C(=O)NCC(=O)N[C@@H](Cc2ccccc2)C(=O)N1` [Lanthionine-enkephalin]: 1220 min. The IC50 is the concentration that gives 50% inhibition. As for `C[C@H](N)C(=O)NCC(=O)N[C@H]1CSSC[C@@H](C(=O)O)NC(=O)[C@H](CO)NC(=O)[C@H]([C@@H](C)O)NC(=O)[C@H](Cc2ccccc2)NC(=O)[C@H]([C@@H](C)O)NC(=O)[C@H](CCCCN)NC(=O)[C@H](Cc2c[nH]c3ccccc23)NC(=O)[C@H](Cc2ccccc2)NC(=O)[C@H](Cc2ccccc2)NC(=O)[C@H](CC(N)=O)NC(=O)[C@H](CCCCN)NC1=O` [Somatostatin-14, reference compound], the IC50 was 0.28 nM at SSTR2 receptor and 0.86 nM at SSTR4 receptor.

Turning to `NC(=O)[C@H]1CSC[C@@H](NC(=O)[C@@H](N)Cc2ccc(O)cc2)C(=O)NCC(=O)N[C@@H](Cc2ccccc2)C(=O)N1` [Tyr-c[D-AlaL-Gly-Phe-D-AlaL]-NH2], on MVD (δ-receptor) (setting [2]), the half-maximal inhibitory concentration (IC50) was found to be 1.67 nM. In the case of `NC(=O)[C@@H]1CSC[C@@H](NC(=O)[C@@H](N)Cc2ccc(O)cc2)C(=O)NCC(=O)N[C@@H](Cc2ccccc2)C(=O)N1` [Tyr-c[D-AlaL-Gly-Phe-L-AlaL]-NH2], the 50% inhibitory concentration (IC50) turned out to be 7 nM at δ receptor and 0.54 nM on MVD (δ-receptor) (setting [2]).

With `N[C@@H](Cc1ccc(O)cc1)C(=O)N[C@@H]1CSC[C@@H](C(=O)O)NC(=O)[C@H](Cc2ccccc2)NC(=O)CNC1=O` [Tyr-c[D-AlaL-Gly-Phe-L-AlaL]-OH], the concentration for half-maximal inhibition (IC50) came out at 1 nM on δ receptor and 0.16 nM on MVD (δ-receptor). On to “H-D-Phe-c[AlaLPhe-D-Trp-Lys-Thr-AlaL]-OH”, for which, on SSTR4 receptor, the IC50 came to 500 nM. As for “H-D-Phe-c[AlaLPhe-D-Trp-Lys-Thr-AlaL]-Thr-NH2”, the IC50 on SSTR2 receptor worked out at 10 nM; at SSTR4 receptor it was 0.5 nM. The “selectivity for SSTR4 (SSTR2/SSTR4 IC50) compared with the octapeptide alcohols” value in the data set on SSTR4 receptor is on record as “four times”.

With “H-D-Phe-c[AlaLPhe-D-Trp-Lys-Thr-AlaL]-Thr-ol”, the values for the IC50 on SSTR2 receptor and at SSTR4 receptor were 5 nM and 1 nM, respectively. For Sandostatin [reference compound], in that order: 2.4 nM and 0.57 nM. As to c[AlaL3, AlaL14]-Somatostatin-14, in the data set on SSTR2 receptor, the “affinity/potency on SSTR2, in words” value is reported as “same binding affinity” and the IC50 came to 0.3 nM.
